Experimental data from the NIST ThermoML archive (doi:10.1016/j.fluid.2013.08.005).
Values joined by “and” are separate entries in the source; they are usually repeats but may differ in a detail not shown here. Equal entries are not always repeated. ± gives the expanded uncertainty stated by the source.

Experiments:
[1] = molar heat capacity at constant pressure; details: 101 kPa, Liquid, Large sample (1 g) DSC
[2] = molar heat capacity at constant pressure; mn = molality of the nth substance listed, in mol/kg; details: 101 kPa, Liquid, Large sample (1 g) DSC, m2 = 0
[3] = mn = molality of the nth substance listed, in mol/kg; details: 298.15 K; 101 kPa; Liquid; Alternating current cell with electrodes; m2 = 0

| SMILES | molar heat capacity at constant pressure ([1]; 298.15 K) | molar heat capacity at constant pressure ([1]; 303.15 K) | molar heat capacity at constant pressure ([1]; 308.15 K) | molar heat capacity at constant pressure ([1]; 313.15 K) | molar heat capacity at constant pressure ([2]; 298.15 K) [J/K/mol] | molar heat capacity at constant pressure ([2]; 303.15 K) [J/K/mol] | molar heat capacity at constant pressure ([2]; 308.15 K) [J/K/mol] | molar heat capacity at constant pressure ([2]; 313.15 K) [J/K/mol] | electrical conductivity [3] [S/m] |
| --- | --- | --- | --- | --- | --- | --- | --- | --- | --- |
| O [water] | 75.37 ± 1.3 J/K/mol and 75.35 ± 1.3 J/K/mol | 75.34 ± 1.3 J/K/mol and 75.32 ± 1.3 J/K/mol | 75.33 ± 1.3 J/K/mol and 75.32 ± 1.3 J/K/mol | 75.34 ± 1.3 J/K/mol and 75.33 ± 1.3 J/K/mol | – | – | – | – | – |
| O [water] + CCCCCCCC[N+](C)(C)C.[Br-] | – | – | – | – | 75.35 ± 1.3 | 75.32 ± 1.3 | 75.32 ± 1.3 | 75.33 ± 1.3 | – |
| O [water] + CCCCCC[N+](C)(C)C.[Br-] | – | – | – | – | 75.37 ± 1.3 | 75.34 ± 1.3 | 75.33 ± 1.3 | 75.34 ± 1.3 | 0.239 ± 0.0095 |
